{
  "source": "patent US7417156B2",
  "about": "“Orally active, antimalarial, anticancer, artemisinin-derived trioxane dimers” (Johns Hopkins University, priority 2002, dated 2008)",
  "test_in_all_cases": "NCI 60 cell line panel screen (SRB)",
  "assay_type_in_all_cases": "cell-based, human",
  "key": {"[1]": {"test_system": "HL-60(TB)"}, "[2]": {"test_system": "RPMI-8226"}, "[3]": {"test_system": "A549/ATCC"}, "[4]": {"test_system": "EKVX"}, "[5]": {"test_system": "HOP-92"}, "[6]": {"test_system": "NCI-H23"}, "[7]": {"test_system": "COLO 205"}, "[8]": {"test_system": "HCT-15"}, "[9]": {"test_system": "HT29"}, "[10]": {"test_system": "KM12"}, "[11]": {"test_system": "U251"}, "[12]": {"test_system": "M14"}, "[13]": {"test_system": "SK-MEL-28"}, "[14]": {"test_system": "UACC-257"}, "[15]": {"test_system": "IGROVI"}, "[16]": {"test_system": "OVCAR-5"}, "[17]": {"test_system": "786-0"}, "[18]": {"test_system": "ACHN"}, "[19]": {"test_system": "TK-10"}, "[20]": {"test_system": "MCF7"}, "[21]": {"test_system": "MDA-MB231/ATCC"}, "[22]": {"test_system": "HS 578T"}, "[23]": {"test_system": "BT-549"}, "[24]": {"test_system": "T-47D", "details": "T-47D (Breast Cancer)"}},
  "data": [
    {"smiles": "C[C@@H]1CC[C@H]2[C@@H](C)C(=O)O[C@@H]3O[C@]4(C)CC[C@@H]1[C@]32OO4", "note": "[Artemisinin]", "values": [
      {"measurement": "Log10LC50", "setting": "[1]; HL-60(TB) (Leukemia), LC50: PG=−50", "result": ">−4.00", "unit": "log10M"},
      {"measurement": "Log10TGI50", "setting": "[1]; HL-60(TB) (Leukemia), TGI: PG=0", "result": ">−4.00", "unit": "log10M"},
      {"measurement": "Log10GI50", "setting": "[1]; Leukemia, HL-60(TB)", "result": "−4.26"},
      {"measurement": "Log10GI50", "setting": "[2]; Leukemia, RPMI-8226", "result": ">−4.00"},
      {"measurement": "Log10LC50", "setting": "[2]; RPMI-8226 (Leukemia), LC50: PG=−50", "result": ">−4.00", "unit": "log10M"},
      {"measurement": "Log10TGI50", "setting": "[2]; RPMI-8226 (Leukemia), TGI: PG=0", "result": ">−4.00", "unit": "log10M"},
      {"measurement": "Log10LC50", "setting": "[3]; A549/ATCC (Non-Small Cell Lung Cancer), LC50: PG=−50", "result": ">−4.00", "unit": "log10M"},
      {"measurement": "Log10TGI50", "setting": "[3]; A549/ATCC (Non-Small Cell Lung Cancer), TGI: PG=0", "result": ">−4.00", "unit": "log10M"},
      {"measurement": "Log10GI50", "setting": "[3]; Non-Small Cell Lung Cancer, A549/ATCC", "result": "−4.17"},
      {"measurement": "Log10LC50", "setting": "[4]; EKVX (Non-Small Cell Lung Cancer), LC50: PG=−50", "result": ">−4.00", "unit": "log10M"},
      {"measurement": "Log10TGI50", "setting": "[4]; EKVX (Non-Small Cell Lung Cancer), TGI: PG=0", "result": ">−4.00", "unit": "log10M"},
      {"measurement": "Log10GI50", "setting": "[4]; Non-Small Cell Lung Cancer, EKVX", "result": ">−4.00"},
      {"measurement": "Log10LC50", "setting": "[5]; HOP-92 (Non-Small Cell Lung Cancer), LC50: PG=−50", "result": ">−4.00", "unit": "log10M"},
      {"measurement": "Log10TGI50", "setting": "[5]; HOP-92 (Non-Small Cell Lung Cancer), TGI: PG=0", "result": ">−4.00", "unit": "log10M"},
      {"measurement": "Log10GI50", "setting": "[5]; Non-Small Cell Lung Cancer, HOP-92", "result": ">−4.00"},
      {"measurement": "Log10LC50", "setting": "[6]; NCI-H23 (Non-Small Cell Lung Cancer), LC50: PG=−50", "result": ">−4.00", "unit": "log10M"},
      {"measurement": "Log10TGI50", "setting": "[6]; NCI-H23 (Non-Small Cell Lung Cancer), TGI: PG=0", "result": ">−4.00", "unit": "log10M"},
      {"measurement": "Log10GI50", "setting": "[6]; Non-Small Cell Lung Cancer, NCI-H23", "result": ">−4.00"},
      {"measurement": "Log10LC50", "setting": "[7]; COLO 205 (Colon Cancer), LC50: PG=−50", "result": ">−4.00", "unit": "log10M"},
      {"measurement": "Log10TGI50", "setting": "[7]; COLO 205 (Colon Cancer), TGI: PG=0", "result": ">−4.00", "unit": "log10M"},
      {"measurement": "Log10GI50", "setting": "[7]; Colon Cancer, COLO 205", "result": ">−4.00"},
      {"measurement": "Log10GI50", "setting": "[8]; Colon Cancer, HCT-15", "result": ">−4.00"},
      {"measurement": "Log10LC50", "setting": "[8]; HCT-15 (Colon Cancer), LC50: PG=−50", "result": ">−4.00", "unit": "log10M"},
      {"measurement": "Log10TGI50", "setting": "[8]; HCT-15 (Colon Cancer), TGI: PG=0", "result": ">−4.00", "unit": "log10M"},
      {"measurement": "Log10GI50", "setting": "[9]; Colon Cancer, HT29", "result": ">−4.00"},
      {"measurement": "Log10LC50", "setting": "[9]; HT29 (Colon Cancer), LC50: PG=−50", "result": ">−4.00", "unit": "log10M"},
      {"measurement": "Log10TGI50", "setting": "[9]; HT29 (Colon Cancer), TGI: PG=0", "result": ">−4.00", "unit": "log10M"},
      {"measurement": "Log10GI50", "setting": "[10]; Colon Cancer, KM12", "result": ">−4.00"},
      {"measurement": "Log10LC50", "setting": "[10]; KM12 (Colon Cancer), LC50: PG=−50", "result": ">−4.00", "unit": "log10M"},
      {"measurement": "Log10TGI50", "setting": "[10]; KM12 (Colon Cancer), TGI: PG=0", "result": ">−4.00", "unit": "log10M"},
      {"measurement": "Log10GI50", "setting": "[11]; CNS Cancer, U251", "result": ">−4.00"},
      {"measurement": "Log10LC50", "setting": "[11]; U251 (CNS Cancer), LC50: PG=−50", "result": ">−4.00", "unit": "log10M"},
      {"measurement": "Log10TGI50", "setting": "[11]; U251 (CNS Cancer), TGI: PG=0", "result": ">−4.00", "unit": "log10M"},
      {"measurement": "Log10LC50", "setting": "[12]; M14 (Melanoma), LC50: PG=−50", "result": ">−4.00", "unit": "log10M"},
      {"measurement": "Log10TGI50", "setting": "[12]; M-14 (Melanoma), TGI: PG=0", "result": ">−4.00", "unit": "log10M"},
      {"measurement": "Log10GI50", "setting": "[13]; Melanoma, SK-MEL-28", "result": ">−4.00"},
      {"measurement": "Log10LC50", "setting": "[13]; SK-MEL-28 (Melanoma), LC50: PG=−50", "result": ">−4.00", "unit": "log10M"},
      {"measurement": "Log10TGI50", "setting": "[13]; SK-MEL-28 (Melanoma), TGI: PG=0", "result": ">−4.00", "unit": "log10M"},
      {"measurement": "Log10GI50", "setting": "[14]; Melanoma, UACC-257", "result": ">−4.00"},
      {"measurement": "Log10LC50", "setting": "[14]; UACC-257 (Melanoma), LC50: PG=−50", "result": ">−4.00", "unit": "log10M"},
      {"measurement": "Log10TGI50", "setting": "[14]; UACC-257 (Melanoma), TGI: PG=0", "result": ">−4.00", "unit": "log10M"},
      {"measurement": "Log10LC50", "setting": "[15]; IGROVI (Ovarian Cancer), LC50: PG=−50", "result": ">−4.00", "unit": "log10M"},
      {"measurement": "Log10TGI50", "setting": "[15]; IGROVI (Ovarian Cancer), TGI: PG=0", "result": ">−4.00", "unit": "log10M"},
      {"measurement": "Log10GI50", "setting": "[15]; Ovarian Cancer, IGROVI", "result": "−4.31"},
      {"measurement": "Log10LC50", "setting": "[16]; OVCAR-5 (Ovarian Cancer), LC50: PG=−50", "result": ">−4.00", "unit": "log10M"},
      {"measurement": "Log10TGI50", "setting": "[16]; OVCAR-5 (Ovarian Cancer), TGI: PG=0", "result": ">−4.00", "unit": "log10M"},
      {"measurement": "Log10GI50", "setting": "[16]; Ovarian Cancer, OVCAR-5", "result": ">−4.00"},
      {"measurement": "Log10LC50", "setting": "[17]; 786-0 (Renal Cancer), LC50: PG=−50", "result": ">−4.00", "unit": "log10M"},
      {"measurement": "Log10TGI50", "setting": "[17]; 786-0 (Renal Cancer), TGI: PG=0", "result": ">−4.00", "unit": "log10M"},
      {"measurement": "Log10GI50", "setting": "[17]; Renal Cancer, 786-0", "result": ">−4.00"},
      {"measurement": "Log10LC50", "setting": "[18]; ACHN (Renal Cancer), LC50: PG=−50", "result": ">−4.00", "unit": "log10M"},
      {"measurement": "Log10TGI50", "setting": "[18]; ACHN (Renal Cancer), TGI: PG=0", "result": ">−4.00", "unit": "log10M"},
      {"measurement": "Log10GI50", "setting": "[18]; Renal Cancer, ACHN", "result": ">−4.00"},
      {"measurement": "Log10GI50", "setting": "[19]; Renal Cancer, TK-10", "result": ">−4.00"},
      {"measurement": "Log10LC50", "setting": "[19]; TK-10 (Renal Cancer), LC50: PG=−50", "result": ">−4.00", "unit": "log10M"},
      {"measurement": "Log10TGI50", "setting": "[19]; TK-10 (Renal Cancer), TGI: PG=0", "result": ">−4.00", "unit": "log10M"},
      {"measurement": "Log10GI50", "setting": "[20]; Breast Cancer, MCF7", "result": ">−4.00"},
      {"measurement": "Log10LC50", "setting": "[20]; MCF7 (Breast Cancer), LC50: PG=−50", "result": ">−4.00", "unit": "log10M"},
      {"measurement": "Log10TGI50", "setting": "[20]; MCF7 (Breast Cancer), TGI: PG=0", "result": ">−4.00", "unit": "log10M"},
      {"measurement": "Log10GI50", "setting": "[21]; Breast Cancer, MDA-MB231/ATCC", "result": "−4.20"},
      {"measurement": "Log10LC50", "setting": "[21]; MDA-MB231/ATCC (Breast Cancer), LC50: PG=−50", "result": ">−4.00", "unit": "log10M"},
      {"measurement": "Log10TGI50", "setting": "[21]; MDA-MB231/ATCC (Breast Cancer), TGI: PG=0", "result": ">−4.00", "unit": "log10M"},
      {"measurement": "Log10GI50", "setting": "[22]; Breast Cancer, HS 578T", "result": ">−4.00"},
      {"measurement": "Log10LC50", "setting": "[22]; HS 578T (Breast Cancer), LC50: PG=−50", "result": ">−4.00", "unit": "log10M"},
      {"measurement": "Log10TGI50", "setting": "[22]; HS 578T (Breast Cancer), TGI: PG=0", "result": ">−4.00", "unit": "log10M"},
      {"measurement": "Log10LC50", "setting": "[23]; BT-549 (Breast Cancer), LC50: PG=−50", "result": ">−4.00", "unit": "log10M"},
      {"measurement": "Log10TGI50", "setting": "[23]; BT-549 (Breast Cancer), TGI: PG=0", "result": ">−4.00", "unit": "log10M"},
      {"measurement": "Log10GI50", "setting": "[23]; Breast Cancer, BT-549", "result": "−4.06"},
      {"measurement": "Log10LC50", "setting": "[24]; LC50: PG=−50", "result": ">−4.00", "unit": "log10M"},
      {"measurement": "Log10TGI50", "setting": "[24]; TGI: PG=0", "result": ">−4.00", "unit": "log10M"}
    ]}
  ]
}
